target: T1, STAT6 (Homo sapiens, UniProt P42226); assay: STAT6 Reporter Luciferase Assay (IL-13 stimulated HaCaT keratinocyte NanoLuc reporter cells); format: cell-based; conditions: IL-13 stimulated HaCaT STAT6 NanoLuc reporter cells; read-out: Reporter EC50
T1 construct: stably transfected HaCaT keratinocyte cell line, which expresses NanoLuc luciferase reporter gene under the transcriptional control of the STAT6 responsive promoter; endogenous in cells; host or cells: HaCaT keratinocyte reporter cell line (stably transfected with a NanoLuc reporter)
T1 sequence (P42226 1-847): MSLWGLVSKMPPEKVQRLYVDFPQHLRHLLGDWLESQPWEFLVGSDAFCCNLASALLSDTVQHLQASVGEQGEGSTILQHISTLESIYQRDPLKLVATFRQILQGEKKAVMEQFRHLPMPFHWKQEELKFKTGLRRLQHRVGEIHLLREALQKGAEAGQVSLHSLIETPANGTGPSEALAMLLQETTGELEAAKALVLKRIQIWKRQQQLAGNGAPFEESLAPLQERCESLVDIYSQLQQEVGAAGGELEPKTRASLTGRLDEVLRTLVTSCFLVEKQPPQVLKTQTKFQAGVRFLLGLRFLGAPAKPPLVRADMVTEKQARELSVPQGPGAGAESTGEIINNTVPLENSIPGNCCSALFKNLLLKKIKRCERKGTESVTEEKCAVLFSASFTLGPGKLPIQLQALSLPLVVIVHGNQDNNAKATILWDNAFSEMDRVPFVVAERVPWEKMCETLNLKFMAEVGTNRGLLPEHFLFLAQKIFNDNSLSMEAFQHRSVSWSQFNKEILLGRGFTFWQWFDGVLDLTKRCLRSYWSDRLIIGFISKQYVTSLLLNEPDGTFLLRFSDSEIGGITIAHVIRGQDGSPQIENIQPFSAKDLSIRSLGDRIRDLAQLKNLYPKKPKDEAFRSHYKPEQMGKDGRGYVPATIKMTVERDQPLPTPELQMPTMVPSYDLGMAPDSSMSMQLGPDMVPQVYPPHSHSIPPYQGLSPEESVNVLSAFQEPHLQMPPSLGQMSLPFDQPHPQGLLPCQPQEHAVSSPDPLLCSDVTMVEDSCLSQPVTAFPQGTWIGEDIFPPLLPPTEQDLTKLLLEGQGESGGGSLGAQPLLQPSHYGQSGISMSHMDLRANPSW
Procedure, shortened: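 Stably transfected HaCaT cells carrying NanoLuc under the STAT6-responsive IL-13Ra2 promoter were pre-treated with compound (11-point, 4-fold series, duplicate) for 2 h at 37 °C, then stimulated with 0.12 nM IL-13 for 4 h. Nano-Glo luminescence was read after 15 min.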

Row | SMILES | EC50
1 | CC(C)n1nc(C(=O)NCc2ccc(NC(=O)NC3(C)CNC3)cc2)c2c1[C@@H](C)CN(c1ccc(C(=O)N(C)C)cc1)C2 [Example 739, (S)-5-(4-(dimethylcarbamoyl)phenyl)-1-isopropyl-7-methyl-N-(4-(3-(3-methylazetidin-3-yl)ureido)benzyl)-4,5,6,7-tetrahydro-1H-pyrazolo[4,3-c]pyridine-3-carboxamide] | 2 nM
2 | CC(C)n1nc(C(=O)NCc2ccc(NC(=O)N3CCC4(CC3)CCN4C)cc2)c2c1[C@@H](C)CN(c1ccc(C(=O)N(C)C)cc1)C2 [Example 740, (S)-5-(4-(dimethylcarbamoyl)phenyl)-1-isopropyl-7-methyl-N-(4-(1-methyl-1,7-diazaspiro[3.5]nonane-7-carboxamido)benzyl)-4,5,6,7-tetrahydro-1H-pyrazolo[4,3-c]pyridine-3-carboxamide] | 2 nM
3 | CC(C)n1nc(C(=O)NCc2ccc(NC(=O)N3CC4(CCCN(C)C4)C3)cc2)c2c1[C@@H](C)CN(c1ccc(C(=O)N(C)C)cc1)C2 [Example 741, (S)-5-(4-(dimethylcarbamoyl)phenyl)-1-isopropyl-7-methyl-N-(4-(6-methyl-2,6-diazaspiro[3.5]nonane-2-carboxamido)benzyl)-4,5,6,7-tetrahydro-1H-pyrazolo[4,3-c]pyridine-3-carboxamide] | 1 nM
4 | CC(C)n1nc(C(=O)NCc2ccc(NC(=O)N3CCC4(CC3)CN(C)C4)cc2)c2c1[C@@H](C)CN(c1ccc(C(=O)N(C)C)cc1)C2 [Example 742, (S)-5-(4-(dimethylcarbamoyl)phenyl)-1-isopropyl-7-methyl-N-(4-(2-methyl-2,7-diazaspiro[3.5]nonane-7-carboxamido)benzyl)-4,5,6,7-tetrahydro-1H-pyrazolo[4,3-c]pyridine-3-carboxamide] | 1 nM
5 | CC(C)n1nc(C(=O)NCc2ccc(NC(=O)N3CCN(C)[C@H](C)C3)cc2)c2c1[C@@H](C)CN(c1ccc(C(=O)N(C)C)cc1)C2 [Example 743, (S)-5-(4-(dimethylcarbamoyl)phenyl)-N-(4-((R)-3,4-dimethylpiperazine-1-carboxamido)benzyl)-1-isopropyl-7-methyl-4,5,6,7-tetrahydro-1H-pyrazolo[4,3-c]pyridine-3-carboxamide] | 1 nM
6 | CCN1CCN(C(=O)Nc2ccc(CNC(=O)c3nn(C(C)C)c4c3CN(c3ccc(C(=O)N(C)C)cc3)C[C@@H]4C)cc2)CC1 [Example 745, (S)-5-(4-(dimethylcarbamoyl)phenyl)-N-(4-(4-ethylpiperazine-1-carboxamido)benzyl)-1-isopropyl-7-methyl-4,5,6,7-tetrahydro-1H-pyrazolo[4,3-c]pyridine-3-carboxamide] | 1 nM
7 | CC(C)n1nc(C(=O)NCc2ccc(NC(=O)N3CC(N(C)C)C3)cc2)c2c1[C@@H](C)CN(c1ccc(C(=O)N(C)C)cc1)C2 [Example 746, (S)-N-(4-(3-(dimethylamino)azetidine-1-carboxamido)benzyl)-5-(4-(dimethylcarbamoyl)phenyl)-1-isopropyl-7-methyl-4,5,6,7-tetrahydro-1H-pyrazolo[4,3-c]pyridine-3-carboxamide] | 1 nM
8 | CC(C)n1nc(C(=O)NCc2ccc(NC(=O)N3CC[C@H](N(C)C)C3)cc2)c2c1[C@@H](C)CN(c1ccc(C(=O)N(C)C)cc1)C2 [Example 747, (S)-N-(4-((S)-3-(dimethylamino)pyrrolidine-1-carboxamido)benzyl)-5-(4-(dimethylcarbamoyl)phenyl)-1-isopropyl-7-methyl-4,5,6,7-tetrahydro-1H-pyrazolo[4,3-c]pyridine-3-carboxamide] | 1 nM
9 | CC(C)n1nc(C(=O)NCc2ccc(NC(=O)N3CC(C)(N(C)C)C3)cc2)c2c1[C@@H](C)CN(c1ccc(C(=O)N(C)C)cc1)C2 [Example 748, (S)-N-(4-(3-(dimethylamino)-3-methylazetidine-1-carboxamido)benzyl)-5-(4-(dimethylcarbamoyl)phenyl)-1-isopropyl-7-methyl-4,5,6,7-tetrahydro-1H-pyrazolo[4,3-c]pyridine-3-carboxamide] | 1 nM

Next, values leading:

Row | EC50 | SMILES
10 | 0.4 nM | CC(C)n1nc(C(=O)NCc2ccc(NC(=O)N3CCC4(CCN(C)CC4)CC3)cc2)c2c1[C@@H](C)CN(c1ccc(C(=O)N(C)C)cc1)C2 [Example 749, (S)-N-(4-((5-(4-(dimethylcarbamoyl)phenyl)-1-isopropyl-7-methyl-4,5,6,7-tetrahydro-1H-pyrazolo[4,3-c]pyridine-3-carboxamido)methyl)phenyl)-9-methyl-3,9-diazaspiro[5.5]undecane-3-carboxamide]
11 | 1 nM | CC(C)n1nc(C(=O)NCc2ccc(NC(=O)N3CC[C@@H](N(C)C)C3)cc2)c2c1[C@@H](C)CN(c1ccc(C(=O)N(C)C)cc1)C2 [Example 750, (S)-N-(4-((R)-3-(dimethylamino)pyrrolidine-1-carboxamido)benzyl)-5-(4-(dimethylcarbamoyl)phenyl)-1-isopropyl-7-methyl-4,5,6,7-tetrahydro-1H-pyrazolo[4,3-c]pyridine-3-carboxamide]
12 | 9 nM | CC(C)n1nc(C(=O)NCc2ccc(NC(=O)N3CC4(CN(C)C4)C3)cc2)c2c1[C@@H](C)CN(c1ccc(C(=O)N(C)C)cc1)C2 [Example 751, (S)-5-(4-(dimethylcarbamoyl)phenyl)-1-isopropyl-7-methyl-N-(4-(6-methyl-2,6-diazaspiro[3.3]heptane-2-carboxamido)benzyl)-4,5,6,7-tetrahydro-1H-pyrazolo[4,3-c]pyridine-3-carboxamide]
13 | 2 nM | CC(C)n1nc(C(=O)NCc2ccc(NC(=O)N3CCC(C)(N(C)C)C3)cc2)c2c1[C@@H](C)CN(c1ccc(C(=O)N(C)C)cc1)C2 (stereo partly drawn) [Example 752, (7S)-N-(4-(3-(dimethylamino)-3-methylpyrrolidine-1-carboxamido)benzyl)-5-(4-(dimethylcarbamoyl)phenyl)-1-isopropyl-7-methyl-4,5,6,7-tetrahydro-1H-pyrazolo[4,3-c]pyridine-3-carboxamide]
14 | 0.5 nM | CC(C)n1nc(C(=O)NCc2ccc(NC(=O)N3CCC4(CCN(C)C4)CC3)cc2)c2c1[C@@H](C)CN(c1ccc(C(=O)N(C)C)cc1)C2 [Example 753, (S)-N-(4-((5-(4-(dimethylcarbamoyl)phenyl)-1-isopropyl-7-methyl-4,5,6,7-tetrahydro-1H-pyrazolo[4,3-c]pyridine-3-carboxamido)methyl)phenyl)-2-methyl-2,8-diazaspiro[4.5]decane-8-carboxamide]
15 | 2 nM | CC(C)n1nc(C(=O)NCc2ccc(NC(=O)N3CCC[C@@H](N(C)C)C3)cc2)c2c1[C@@H](C)CN(c1ccc(C(=O)N(C)C)cc1)C2 [Example 754, (S)-N-(4-((R)-3-(dimethylamino)piperidine-1-carboxamido)benzyl)-5-(4-(dimethylcarbamoyl)phenyl)-1-isopropyl-7-methyl-4,5,6,7-tetrahydro-1H-pyrazolo[4,3-c]pyridine-3-carboxamide]
16 | 2 nM | CC(C)n1nc(C(=O)NCc2ccc(NC(=O)N3CCC[C@H](N(C)C)C3)cc2)c2c1[C@@H](C)CN(c1ccc(C(=O)N(C)C)cc1)C2 [Example 755, (S)-N-(4-((S)-3-(dimethylamino)piperidine-1-carboxamido)benzyl)-5-(4-(dimethylcarbamoyl)phenyl)-1-isopropyl-7-methyl-4,5,6,7-tetrahydro-1H-pyrazolo[4,3-c]pyridine-3-carboxamide]
17 | 1 nM | CC(C)n1nc(C(=O)NCc2ccc(NC(=O)N3CC[C@H](CN(C)C)C3)cc2)c2c1[C@@H](C)CN(c1ccc(C(=O)N(C)C)cc1)C2 [Example 756, (S)-N-(4-((R)-3-((dimethylamino)methyl)pyrrolidine-1-carboxamido)benzyl)-5-(4-(dimethylcarbamoyl)phenyl)-1-isopropyl-7-methyl-4,5,6,7-tetrahydro-1H-pyrazolo[4,3-c]pyridine-3-carboxamide]
18 | 0.3 nM | CC(C)n1nc(C(=O)NCc2ccc(NC(=O)N3CCC4(CCCN(C)C4)CC3)cc2)c2c1[C@@H](C)CN(c1ccc(C(=O)N(C)C)cc1)C2 [Example 757, (S)-N-(4-((5-(4-(dimethylcarbamoyl)phenyl)-1-isopropyl-7-methyl-4,5,6,7-tetrahydro-1H-pyrazolo[4,3-c]pyridine-3-carboxamido)methyl)phenyl)-2-methyl-2,9-diazaspiro[5.5]undecane-9-carboxamide]
